The record followed here is ChEMBL document CHEMBL4334511, “Trivirensols: Selectively Bacteriostatic Sesquiterpene Trimers from the Australian Termite Nest-Derived Fungus Trichoderma virens CMB-TN16” (J Nat Prod, 2019).

Activity calls are given as the source filed them. No cut-off for these calls is given here.

Series [1] relates to Klebsiella pneumoniae. Nature of the series: Antibacterial activity against NDM-producing Klebsiella pneumoniae SA-Rd-KAMC-037 assessed as reduction in […] growth at 0.01 to 30 uM incubated for 24 hrs by spectrophotometry based broth microdilution assay. It is filed as functional, organism-based. In general terms: Dilution methods test growth across graded concentrations, often in twofold steps.

For series [2], the system named is Staphylococcus aureus. The series can be described thus: Antibacterial activity against Staphylococcus aureus ATCC 9144 assessed as reduction in […] growth at 0.01 to 30 uM incubated for 24 hrs by spectrophotometry based broth microdilution assay. Type of series: functional, organism-based.
The test system of a further series is NCI-H460. Nature of the series: Cytotoxicity against human NCI-H460 cells assessed as reduction in cell viability upto 30 uM incubated for 48 hrs by MTT assay. It is filed as cell-based. Conditions: nci-h460, 48 h. On the technique in general: Formazan colour is commonly taken as a measure of viable cells.
Series [3] concerns Klebsiella pneumoniae. Nature of the series: Antibacterial activity against OXA-48-producing Klebsiella pneumoniae SA-Rd-KAMC-014 assessed as reduction in […] growth at 0.01 to 30 uM incubated for 24 hrs by spectrophotometry based broth microdilution assay. Type of series: functional, organism-based.
The test system of series [4] is Pseudomonas aeruginosa. Nature of the series: Antibacterial activity against VIM producing Pseudomonas aeruginosa SA-EP-KFUH-40 assessed as reduction in […] growth at 0.01 to 30 uM incubated for 24 hrs by spectrophotometry based broth microdilution assay. It is filed as functional, organism-based.
A further series relates to Streptococcus pyogenes. The series can be described thus: Antibacterial activity against Streptococcus pyogenes ATCC 12344 assessed as reduction in […] growth at 0.01 to 30 uM incubated for 24 hrs by spectrophotometry based broth microdilution assay. Type of series: functional, organism-based.
Series [5] concerns Pseudomonas aeruginosa. The series can be described thus: Antibacterial activity against IMP producing Pseudomonas aeruginosa UAE-DBI-ZMH-91 assessed as reduction in […] growth at 0.01 to 30 uM incubated for 24 hrs by spectrophotometry based broth microdilution assay. It is filed as functional, organism-based.
In series [6] the test system is Staphylococcus aureus. The series can be described thus: Antibacterial activity against methicillin-resistant Staphylococcus aureus AUS-RBWH-MRSA-02 assessed as reduction in […] growth at 0.01 to 30 uM incubated for 24 hrs by spectrophotometry based broth microdilution assay. Type of series: functional, organism-based.
The next series has as its system Candida albicans. The series can be described thus: Antifungal activity against Candida albicans ATCC 90028 assessed as reduction in fungal growth at 0.01 to 30 uM incubated for 24 hrs by spectrophotometry based broth microdilution assay. It is filed as functional, organism-based.
In another series the test system is Bacillus subtilis. The series can be described thus: Antibacterial activity against Bacillus subtilis ATCC 6633 assessed as reduction in […] growth at 0.01 to 30 uM incubated for 24 hrs by spectrophotometry based broth microdilution assay. Type of series: functional, organism-based.
The test system of the next series is Acinetobacter baumannii. Nature of the series: Antibacterial activity against OXA-23-producing Acinetobacter baumannii SA-Rd-KAMC-083 assessed as reduction in […] growth at 0.01 to 30 uM incubated for 24 hrs by spectrophotometry based broth microdilution assay. Type of series: functional, organism-based.
Series [7] deals with Escherichia coli. Nature of the series: Antibacterial activity against Escherichia coli ATCC 11775 assessed as reduction in […] growth at 0.01 to 30 uM incubated for 24 hrs by spectrophotometry based broth microdilution assay. Type of series: functional, organism-based.
A further series concerns SW-620. Nature of the series: Cytotoxicity against human SW620 cells assessed as reduction in cell viability upto 30 uM incubated for 48 hrs by MTT assay. Type of series: cell-based. Conditions: sw-620, 48 h.
Series [8] relates to Escherichia coli. Nature of the series: Antibacterial activity against Escherichia coli KUW-kw-AmH-11 assessed as reduction in […] growth at 0.01 to 30 uM incubated for 24 hrs by spectrophotometry based broth microdilution assay. Type of series: functional, organism-based.
Series [9] concerns Enterococcus faecalis. Nature of the series: Antibacterial activity against vancomycin-resistant Enterococcus faecalis AUS-RBWH-VRE-01 assessed as fold reduction in growth by measuring colony formation unit at 30 uM incubated for 24 hrs by time kill assay. Type of series: functional.
Series [10] relates to Enterococcus faecalis. The series can be described thus: Antibacterial activity against vancomycin-resistant Enterococcus faecalis AUS-RBWH-VRE-01 assessed as reduction in […] growth incubated for 24 hrs by spectrophotometry based broth microdilution assay. It is filed as functional, organism-based.

As for `CC(C)[C@H]1CC[C@@](O)(COC(=O)C2=C[C@H]3[C@@H](OC2)[C@H](CO)CC[C@@H]3C(C)C)[C@H]2C(=O)OCC(C(=O)O)=C[C@H]12`, the result in the series on Klebsiella pneumoniae [1], in the series on Staphylococcus aureus [2], with Klebsiella pneumoniae [3], in the series on Pseudomonas aeruginosa [4], in the series on Streptococcus pyogenes and in the series on Pseudomonas aeruginosa [5] was inactive. Further, the outcome in the series on Staphylococcus aureus [6], in the series with Candida albicans, in the series with Bacillus subtilis, with Acinetobacter baumannii, in the series with Escherichia coli [7] and with Escherichia coli [8] was inactive. Further, the Activity result with NCI-H460 and with SW-620 was “Non-Toxic” throughout.
As to `CN[C@H](CC(C)C)C(=O)N[C@H]1C(=O)N[C@@H](CC(N)=O)C(=O)N[C@H]2C(=O)N[C@H]3C(=O)N[C@H](C(=O)N[C@H](C(=O)O)c4cc(O)cc(O)c4-c4cc3ccc4O)[C@H](O)c3ccc(c(Cl)c3)Oc3cc2cc(c3O[C@@H]2O[C@H](CO)[C@@H](O)[C@H](O)[C@H]2O[C@H]2C[C@](C)(N)[C@H](O)[C@H](C)O2)Oc2ccc(cc2Cl)[C@H]1O` [VANCOMYCIN], in the series with Enterococcus faecalis [9], the “fold change (FC)” value was 100.
Take `CC(C)[C@H]1CC[C@@](O)(COC(=O)/C(=C/[C@H]2C=C(CO)CC[C@@H]2C(C)C)CO)[C@H]2C(=O)OCC(C(=O)O[C@@]34CC[C@H](C(C)C)[C@@H](/C=C(\CO)C(=O)O)[C@@H]3C(=O)OC4)=C[C@H]12`: the outcome in the series on Klebsiella pneumoniae [1], in the series on Staphylococcus aureus [2], with Klebsiella pneumoniae [3], in the series on Pseudomonas aeruginosa [4], in the series with Streptococcus pyogenes and with Pseudomonas aeruginosa [5] was inactive. The outcome with Staphylococcus aureus [6], with Candida albicans, with Bacillus subtilis, with Acinetobacter baumannii, with Escherichia coli [7] and with Escherichia coli [8] was inactive. The Activity entry in the series on NCI-H460 and in the series on SW-620 was “Non-Toxic” throughout. Further, in the series on Enterococcus faecalis [10], the IC50 result is given as “Not Active”.
As to `CC(C)[C@H]1CC[C@@](O)(COC(=O)/C(=C/[C@@H]2[C@@H](C(C)C)CC[C@@]3(OC(=O)/C(=C/[C@H]4C=C(CO)CC[C@@H]4C(C)C)CO)COC(=O)[C@@H]23)CO)[C@H]2C(=O)OCC(C(=O)O)=C[C@H]12`, the outcome in the series on Klebsiella pneumoniae [1], in the series on Staphylococcus aureus [2], with Klebsiella pneumoniae [3], in the series with Pseudomonas aeruginosa [4], with Streptococcus pyogenes and in the series on Pseudomonas aeruginosa [5] was inactive. The outcome in the series with Staphylococcus aureus [6], with Candida albicans, with Bacillus subtilis, with Acinetobacter baumannii, in the series with Escherichia coli [7] and in the series on Escherichia coli [8] was inactive. The Activity entry with NCI-H460 and in the series with SW-620 was “Non-Toxic” in each case. For the same compound, the IC50 result in the series on Enterococcus faecalis [10] was “Not Active”.
For the compound `CC(C)[C@H]1CC[C@@]2(OC(=O)/C(=C/[C@H]3C4=C(CC[C@@H]3C(C)C)COC4=O)CO)COC(=O)[C@H]2[C@@H]1/C=C(\CO)C(=O)O`, the result with Klebsiella pneumoniae [1], in the series on Staphylococcus aureus [2], in the series on Klebsiella pneumoniae [3], in the series with Pseudomonas aeruginosa [4], in the series on Streptococcus pyogenes and with Pseudomonas aeruginosa [5] was inactive. Further, the result in the series with Staphylococcus aureus [6], in the series with Candida albicans, with Bacillus subtilis, in the series on Acinetobacter baumannii, with Escherichia coli [7] and with Escherichia coli [8] was inactive. Further, the Activity result in the series with NCI-H460 and in the series with SW-620 was “Non-Toxic” throughout.
With `CC(C)[C@H]1CC[C@@](O)(COC(=O)C2=C[C@@H]3[C@@H](C(C)C)CC[C@@](O)(COC(=O)/C(=C/[C@H]4C=C(CO)CC[C@@H]4C(C)C)CO)[C@H]3C(=O)OC2)[C@H]2C(=O)OCC(C(=O)O)=C[C@H]12`, the result in the series with Klebsiella pneumoniae [1], with Staphylococcus aureus [2], in the series with Klebsiella pneumoniae [3], in the series with Pseudomonas aeruginosa [4], with Streptococcus pyogenes and with Pseudomonas aeruginosa [5] was inactive. Besides, the result in the series with Staphylococcus aureus [6], in the series on Candida albicans, with Bacillus subtilis, with Acinetobacter baumannii, in the series on Escherichia coli [7] and in the series on Escherichia coli [8] was inactive. Besides, the Activity entry in the series on NCI-H460 and with SW-620 was “Non-Toxic” throughout. Moreover, in the series on Enterococcus faecalis [10], the IC50 entry is “Not Active”.
With `CC(C)[C@H]1CC[C@@](O)(COC(=O)/C(=C/[C@H]2C3=C(CC[C@@H]2C(C)C)COC3=O)CO)[C@@H](C(=O)O)[C@@H]1/C=C(\CO)C(=O)O`, the outcome with Klebsiella pneumoniae [1], in the series with Staphylococcus aureus [2], with Klebsiella pneumoniae [3], with Pseudomonas aeruginosa [4], in the series on Streptococcus pyogenes and in the series with Pseudomonas aeruginosa [5] was inactive. Besides, the outcome with Staphylococcus aureus [6], in the series with Candida albicans, with Bacillus subtilis, in the series with Acinetobacter baumannii, in the series with Escherichia coli [7] and in the series with Escherichia coli [8] was inactive. Further, the Activity result with NCI-H460 and in the series on SW-620 was “Non-Toxic” throughout. In addition, the outcome in the series on Enterococcus faecalis [9] was Active.
In the case of `CC(C)[C@H]1CC[C@@](O)(COC(=O)/C(=C/[C@H]2C3=C(CC[C@@H]2C(C)C)COC3=O)CO)[C@H]2C(=O)OCC(C(=O)O)=C[C@H]12`, the outcome with Klebsiella pneumoniae [1], with Staphylococcus aureus [2], in the series on Klebsiella pneumoniae [3], with Pseudomonas aeruginosa [4], in the series on Streptococcus pyogenes and in the series on Pseudomonas aeruginosa [5] was inactive. For the same compound, the outcome in the series with Staphylococcus aureus [6], in the series on Candida albicans, with Bacillus subtilis, in the series on Acinetobacter baumannii, in the series on Escherichia coli [7] and in the series with Escherichia coli [8] was inactive. Besides, the Activity result in the series on NCI-H460 and in the series on SW-620 was “Non-Toxic” throughout. The result with Enterococcus faecalis [9] was Active.
As to `CC(C)[C@H]1CC[C@@](O)(COC(=O)/C(=C/[C@H]2C=C(CO)CC[C@@H]2C(C)C)CO)[C@H]2C(=O)OCC(C(=O)O)=C[C@H]12`, the result with Klebsiella pneumoniae [1], with Staphylococcus aureus [2], in the series with Klebsiella pneumoniae [3], in the series with Pseudomonas aeruginosa [4], in the series on Streptococcus pyogenes and with Pseudomonas aeruginosa [5] was inactive. In addition, the outcome with Staphylococcus aureus [6], in the series on Candida albicans, with Bacillus subtilis, with Acinetobacter baumannii, in the series with Escherichia coli [7] and in the series on Escherichia coli [8] was inactive. Moreover, the Activity result with NCI-H460 and with SW-620 was “Non-Toxic” each time.
Take `CC(C)[C@H]1CC[C@@]2(OC(=O)/C(=C/[C@H]3C=C(CO)CC[C@@H]3C(C)C)CO)COC(=O)[C@H]2[C@@H]1/C=C(\CO)C(=O)O`: the outcome in the series on Klebsiella pneumoniae [1], in the series with Staphylococcus aureus [2], in the series on Klebsiella pneumoniae [3], in the series with Pseudomonas aeruginosa [4], in the series on Streptococcus pyogenes and in the series with Pseudomonas aeruginosa [5] was inactive. Further, the outcome in the series with Staphylococcus aureus [6], with Candida albicans, in the series with Bacillus subtilis, in the series on Acinetobacter baumannii, in the series with Escherichia coli [7] and with Escherichia coli [8] was inactive. For the same compound, the Activity result in the series with NCI-H460 and in the series with SW-620 was “Non-Toxic” in each case.
